Several values for one entry are separate records, joined by “and”; a condition that tells them apart may be missing. Equal entries are not always repeated. Toxic doses and inconclusive results are not listed. Rule for the calls: active = survival T/C of 150% or more; inactive = T/C below 125% in these data.
System: P388 leukemia ip, CD2F1 mice, survival T/C
Assay: NCI In Vivo Anticancer Drug Screen. Data for tumor model P388 Leukemia (intraperitoneal) in CD2F1 (CDF1) mice
Conditions: endpoint: median survival time, higher = longer survival
Method in brief: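 Mice carrying the transplanted tumor received test compound or vehicle. Survival was recorded in each group, and the value is the treated-group measurement divided by that of the vehicle-treated control group.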

[1] = dose: 50.0 mg/kg/injection, schedule: Q01DX009 (ip), vehicle: saline with Tween-80
[2] = dose: 100.0 mg/kg/injection, schedule: Q01DX009 (ip), vehicle: saline with Tween-80
[3] = dose: 6.25 mg/kg/injection, schedule: Q01DX009 (ip), vehicle: Klucel (hydroxypropylcellulose) (HPC)
[4] = dose: 12.5 mg/kg/injection, schedule: Q01DX009 (ip), vehicle: Klucel (hydroxypropylcellulose) (HPC)
[5] = dose: 25.0 mg/kg/injection, schedule: Q01DX009 (ip), vehicle: Klucel (hydroxypropylcellulose) (HPC)
[6] = dose: 50.0 mg/kg/injection, schedule: Q01DX009 (ip), vehicle: Klucel (hydroxypropylcellulose) (HPC)
[7] = dose: 100.0 mg/kg/injection, schedule: Q01DX009 (ip), vehicle: Klucel (hydroxypropylcellulose) (HPC)
[8] = dose: 50.0 mg/kg/injection, schedule: Q01DX005 (ip), vehicle: saline with Tween-80
[9] = dose: 100.0 mg/kg/injection, schedule: Q01DX005 (ip), vehicle: saline with Tween-80
[10] = dose: 200.0 mg/kg/injection, schedule: Q01DX005 (ip), vehicle: saline with Tween-80
[11] = dose: 60.0 mg/kg/injection, schedule: Q01DX005 (ip), vehicle: saline with Tween-80
[12] = dose: 120.0 mg/kg/injection, schedule: Q01DX005 (ip), vehicle: saline with Tween-80
[13] = dose: 60.0 mg/kg/injection, schedule: Q01DX005 (ip), vehicle: Klucel (hydroxypropylcellulose) (HPC)
[14] = dose: 120.0 mg/kg/injection, schedule: Q01DX005 (ip), vehicle: Klucel (hydroxypropylcellulose) (HPC)
[15] = dose: 12.5 mg/kg/injection, schedule: Q01DX009 (ip), vehicle: saline with Tween-80
[16] = dose: 25.0 mg/kg/injection, schedule: Q01DX009 (ip), vehicle: saline with Tween-80

Measured: T/C

CCC[n+]1ccc(/C=N\NC(N)=S)c2ccccc21
inactive: [1] 110 % of control | [2] 121 % of control | dose: 200.0 mg/kg/injection, schedule: Q01DX009 (ip), vehicle: saline with Tween-80 112 % of control

N#CSc1ccc2nc(NC(NC(=O)c3ccccc3)C(Cl)(Cl)Cl)sc2c1 (centres undefined)
inactive: [3] 102 % of control | [4] 108 % of control | [5] 101 % of control

Oc1ccc2c(c1O)/C(=C/C=NCC1(O)OCC(O)C(O)C1O)C=N2 (centres undefined)
inactive: dose: 60.0 mg/kg/injection, schedule: Q01DX005 (ip), vehicle: saline 101 % of control | dose: 120.0 mg/kg/injection, schedule: Q01DX005 (ip), vehicle: saline 98 % of control | dose: 240.0 mg/kg/injection, schedule: Q01DX005 (ip), vehicle: saline 101 % of control

CN(C)/N=C/c1c[nH]c2ccccc12
inactive: [3] 105 % of control | [4] 103 % of control | [5] 100 % of control | [6] 118 % of control | [7] 111 % of control

OCCCCCCCCCCCC1C=CCC1 (centres undefined)
inactive: dose: 100.0 mg/kg/injection, schedule: Q01DX001 (ip), vehicle: saline 101 % of control | dose: 200.0 mg/kg/injection, schedule: Q01DX001 (ip), vehicle: saline 101 % of control | dose: 400.0 mg/kg/injection, schedule: Q01DX001 (ip), vehicle: saline 107 % of control

OCCc1cc(Cl)no1
inactive: [8] 100 % of control | [9] 102 % of control | [10] 109 % of control

C=CC(N)[Si](CC)(CC)CC (centres undefined)
inactive: [11] 106 % of control | [12] 101 % of control

C=C1C(=O)OC2CC3=CCC(OC3=O)/C(C)=C\CC12 (centres undefined)
inactive: dose: 21.5 mg/kg/injection, schedule: Q01DX005 (ip), vehicle: Klucel (hydroxypropylcellulose) (HPC) 118 % of control | dose: 43.0 mg/kg/injection, schedule: Q01DX005 (ip), vehicle: Klucel (hydroxypropylcellulose) (HPC) 116 % of control | dose: 86.0 mg/kg/injection, schedule: Q01DX005 (ip), vehicle: Klucel (hydroxypropylcellulose) (HPC) 108 % of control

CCC(=O)Cc1nc2nnc(N)n2nc1CC(=O)CC
inactive: dose: 50.0 mg/kg/injection, schedule: Q01DX005 (ip), vehicle: saline 100 % of control | dose: 100.0 mg/kg/injection, schedule: Q01DX005 (ip), vehicle: saline 107 % of control | dose: 200.0 mg/kg/injection, schedule: Q01DX005 (ip), vehicle: saline 98 % of control

Cc1c(C2=C(Br)C(=O)N(C)C2=O)c(=O)n(C)c(=O)n1C
inactive: [13] 111 % of control | [14] 118 % of control

CC1SC2(C(=O)Nc3ccc(Cl)cc32)N(c2ccc(Cl)cc2)C1=O (centres undefined)
inactive: [13] 105 % of control | [14] 105 % of control | dose: 240.0 mg/kg/injection, schedule: Q01DX005 (ip), vehicle: Klucel (hydroxypropylcellulose) (HPC) 108 % of control

[Cl][Hg][c]1ccccc1N=Nc1ccccc1I
inactive: [15] 101 % of control | [16] 96 % of control | [1] 113 % of control and 98 % of control | [2] 122 % of control and 94 % of control

CSC(=S)NS(=O)(=O)c1cccs1
inactive: [6] 98 % of control | [7] 91 % of control

COC(OC)C(C)(C)NC(C)(C)C
inactive: dose: 50.0 mg/kg/injection, schedule: Q01DX009 (ip), vehicle: saline 104 % of control | dose: 100.0 mg/kg/injection, schedule: Q01DX009 (ip), vehicle: saline 100 % of control

O=C(Nc1ccccc1)Nc1nnnc2ccccc12
inactive: dose: 100.0 mg/kg/injection, schedule: Q01DX001 (ip), vehicle: saline with Tween-80 100 % of control | dose: 200.0 mg/kg/injection, schedule: Q01DX001 (ip), vehicle: saline with Tween-80 95 % of control | dose: 400.0 mg/kg/injection, schedule: Q01DX001 (ip), vehicle: saline with Tween-80 90 % of control

Cc1c[n+]([O-])ccc1Br
inactive: dose: 6.25 mg/kg/injection, schedule: Q01DX009 (ip), vehicle: water 99 % of control | dose: 12.5 mg/kg/injection, schedule: Q01DX009 (ip), vehicle: water 90 % of control | dose: 25.0 mg/kg/injection, schedule: Q01DX009 (ip), vehicle: water 100 % of control | dose: 50.0 mg/kg/injection, schedule: Q01DX009 (ip), vehicle: water 101 % of control

COc1nc2c(ccn2C2OCC(OC(C)=O)C(OC(C)=O)C2OC(C)=O)c(=O)n1C (centres undefined)
inactive: [11] 100 % of control | [12] 97 % of control | dose: 240.0 mg/kg/injection, schedule: Q01DX005 (ip), vehicle: saline with Tween-80 100 % of control

N#CC1=C(C#N)C(=O)C(Cl)=C(Cl)C1=O
inactive: dose: 3.13 mg/kg/injection, schedule: Q01DX009 (ip), vehicle: saline 109 % of control | dose: 6.25 mg/kg/injection, schedule: Q01DX009 (ip), vehicle: saline 118 % of control | dose: 6.25 mg/kg/injection, schedule: Q04DX002 (ip), vehicle: saline 95 % of control | dose: 6.25 mg/kg/injection, schedule: Q04DX003 (ip), vehicle: saline 95 % of control | dose: 12.5 mg/kg/injection, schedule: Q01DX009 (ip), vehicle: saline 118 % of control | dose: 12.5 mg/kg/injection, schedule: Q04DX002 (ip), vehicle: saline 109 % of control | dose: 12.5 mg/kg/injection, schedule: Q04DX003 (ip), vehicle: saline 113 % of control | dose: 25.0 mg/kg/injection, schedule: Q04DX002 (ip), vehicle: saline with Tween-80 117 % of control | dose: 25.0 mg/kg/injection, schedule: Q04DX002 (ip), vehicle: saline 116 % of control | dose: 62.5 mg/kg/injection, schedule: Q01DX005 (ip), vehicle: saline 95 % of control | dose: 125.0 mg/kg/injection, schedule: Q01DX005 (ip), vehicle: saline 113 % of control | dose: 250.0 mg/kg/injection, schedule: Q01DX005 (ip), vehicle: saline 94 % of control

C/C(=N/O)C1CCC(C2CCCC(C3CCCCC3)C2)CC1 (centres undefined)
inactive: [8] 94 % of control | [9] 94 % of control | [10] 93 % of control

O=C(C(=O)N1CCC(O)CC1)c1c[nH]c2ccccc12
inactive: [6] 98 % of control | [7] 101 % of control | dose: 200.0 mg/kg/injection, schedule: Q01DX009 (ip), vehicle: Klucel (hydroxypropylcellulose) (HPC) 100 % of control

COc1ccc(C[C@H]2c3c(cc4c(c3OC)OCO4)CCN2C)c(CO)c1OC
inactive: dose: 9.38 mg/kg/injection, schedule: Q01DX005 (ip), vehicle: Klucel (hydroxypropylcellulose) (HPC) 100 % of control | dose: 18.75 mg/kg/injection, schedule: Q01DX005 (ip), vehicle: Klucel (hydroxypropylcellulose) (HPC) 98 % of control | dose: 37.5 mg/kg/injection, schedule: Q01DX005 (ip), vehicle: Klucel (hydroxypropylcellulose) (HPC) 94 % of control | dose: 75.0 mg/kg/injection, schedule: Q01DX005 (ip), vehicle: Klucel (hydroxypropylcellulose) (HPC) 99 % of control

c1ccc(-c2nc(-c3ccccc3)c3ccccc3n2)cc1
inactive: [16] 104 % of control | [1] 114 % of control | [2] 114 % of control

Cc1ccc(C(=O)N=[N+]=[N-])o1
inactive: [15] 98 % of control | [16] 100 % of control | [1] 100 % of control
